What was measured:
Format in all cases: in vivo
[1] = system: redroot pigweed (Amaranthus retroflexus, AMARE); assay: Pre-emerge test, greenhouse herbicide activity screening; settings: rated 14 days after application, 0 = no damage, 100 = complete death
In short: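 Compounds in acetone were track-sprayed at 187 l/ha, 15–1000 g ai/ha, onto sandy loam pots. Pre-emerge seeds were sown one day before spraying, with surface watering afterwards. Post-emerge plants were at the 2–3 leaf stage and sprayed with 0.25% v/v non-ionic surfactant. Injury was rated 0–100 at 14 days.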

[2] = system: barnyardgrass (Echinochloa crus-galli, ECHCG); assay: as above; settings: rated 14 days after application, 0 = no damage, 100 = complete death
In short: (§1)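 Visual ratings on a 0-100 scale (0 no damage, 100 all plants dead) were taken at 14 days after treatment. Rates of 15-1000 g ai/ha in acetone, 187 l/ha, were sprayed onto soil one day after planting (pre-emerge) or onto 2-3 leaf plants with 0.25% v/v surfactant (post-emerge).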

[3] = system: green foxtail (Setaria viridis, SETVI); assay: as above; settings: rated 14 days after application, 0 = no damage, 100 = complete death
In short: as §1

[4] = system: ivyleaf morningglory (Ipomoea hederacea, IPOHE); assay: as above; settings: rated 14 days after application, 0 = no damage, 100 = complete death
In short: as §1

[5] = system: johnsongrass (Sorghum halepense, SORHA); assay: as above; settings: rated 14 days after application, 0 = no damage, 100 = complete death
In short: as §1

[6] = system: lambsquarters (Chenopodium album, CHEAL); assay: as above; settings: rated 14 days after application, 0 = no damage, 100 = complete death
In short: as §1

[7] = system: large crabgrass (Digitaria sanguinalis, DIGSA); assay: as above; settings: rated 14 days after application, 0 = no damage, 100 = complete death
In short: as §1

[8] = system: sicklepod (Cassia obtusifolia, CASOB); assay: as above; settings: rated 14 days after application, 0 = no damage, 100 = complete death
In short: as §1

[9] = system: velvetleaf (Abutilon theophrasti, ABUTH); assay: as above; settings: rated 14 days after application, 0 = no damage, 100 = complete death
In short: as §1

[10] = system: field corn (Zea mays L., var. Dekalb 535, CORN); assay: Pre-emerge test, crop safety; settings: rated 14 days after application, 0 = no damage, 100 = complete death
In short: (§2)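 Fourteen days after spraying, crop and weed injury was graded visually from 0, no effect, to 100, every plant dead. Test substances were dissolved in acetone and applied at 15–1000 g ai/ha with a flat-fan nozzle. Application was either pre-emergence, one day after sowing, or post-emergence at the 2–3 leaf stage.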

[11] = system: upland rice (Oryza sp., var. Tebonnet, RICE); assay: Pre-emerge test, crop safety; settings: rated 14 days after application, 0 = no damage, 100 = complete death
In short: as §2

[12] = system: barnyardgrass (Echinochloa crus-galli, ECHCG); assay: Post-emerge test, greenhouse herbicide activity screening; settings: post-emerge, 14 days after application, rating scale 0-100
In short: as §1

[13] = system: green foxtail (Setaria viridis, SETVI); assay: as above; settings: post-emerge, 14 days after application, rating scale 0-100
In short: as §1

[14] = system: ivyleaf morningglory (Ipomoea hederacea, IPOHE); assay: as above; settings: post-emerge, 14 days after application, rating scale 0-100
In short: as §1

[15] = system: johnsongrass (Sorghum halepense, SORHA); assay: as above; settings: post-emerge, 14 days after application, rating scale 0-100
In short: as §1

[16] = system: large crabgrass (Digitaria sanguinalis, DIGSA); assay: as above; settings: post-emerge, 14 days after application, rating scale 0-100
In short: as §1

[17] = system: redroot pigweed (Amaranthus retroflexus, AMARE); assay: as above; settings: post-emerge, 14 days after application, rating scale 0-100
In short: as §1

[18] = system: sicklepod (Cassia obtusifolia, CASOB); assay: as above; settings: post-emerge, 14 days after application, rating scale 0-100
In short: as §1

[19] = system: velvetleaf (Abutilon theophrasti, ABUTH); assay: as above; settings: post-emerge, 14 days after application, rating scale 0-100
In short: as §1

[20] = system: field corn (Zea mays L., var. Dekalb 535, CORN); assay: Post-emerge test, crop safety; settings: post-emerge, 14 days after application, rating scale 0-100
In short: as §1

[21] = system: upland rice (Oryza sp., var. Tebonnet, RICE); assay: Post-emerge test, crop safety; settings: post-emerge, 14 days after application, rating scale 0-100
In short: as §1

With `COc1c(Cl)cc(F)c(-n2c(=O)cc(C(F)(F)F)n(C)c2=O)c1NC(=O)COC(C)=O` [2-117] the “Pre-emerge Herbicidal Activity, phytotoxicity rating (0-100), AMARE” value ([1]; 63 g ai/ha) was 90, the “Pre-emerge Herbicidal Activity, phytotoxicity rating (0-100), AMARE” value ([1]; 250 g ai/ha) was 100 and the “Pre-emerge Herbicidal Activity, phytotoxicity rating (0-100), ECHCG” value ([2]; 63 g ai/ha) was 10. The “Pre-emerge Herbicidal Activity, phytotoxicity rating (0-100), ECHCG” value ([2]; 250 g ai/ha) was 70, the “Pre-emerge Herbicidal Activity, phytotoxicity rating (0-100), SETVI” value ([3]; 63 g ai/ha) was 30 and the “Pre-emerge Herbicidal Activity, phytotoxicity rating (0-100), SETVI” value ([3]; 250 g ai/ha) was 100. The “Pre-emerge Herbicidal Activity, phytotoxicity rating (0-100), IPOHE” value ([4]; 63 g ai/ha) was 100, the “Pre-emerge Herbicidal Activity, phytotoxicity rating (0-100), IPOHE” value ([4]; 250 g ai/ha) was 100 and the “Pre-emerge Herbicidal Activity, phytotoxicity rating (0-100), SORHA” value ([5]; 63 g ai/ha) was 10. For the same molecule, the “Pre-emerge Herbicidal Activity, phytotoxicity rating (0-100), SORHA” value ([5]; 250 g ai/ha) was 60, the “Pre-emerge Herbicidal Activity, phytotoxicity rating (0-100), CHEAL” value ([6]; 63 g ai/ha) was 100 and the “Pre-emerge Herbicidal Activity, phytotoxicity rating (0-100), CHEAL” value ([6]; 250 g ai/ha) was 100. The “Pre-emerge Herbicidal Activity, phytotoxicity rating (0-100), DIGSA” value ([7]; 63 g ai/ha) was 30, the “Pre-emerge Herbicidal Activity, phytotoxicity rating (0-100), DIGSA” value ([7]; 250 g ai/ha) was 90 and the “Pre-emerge Herbicidal Activity, phytotoxicity rating (0-100), CASOB” value ([8]; 63 g ai/ha) was 80. The “Pre-emerge Herbicidal Activity, phytotoxicity rating (0-100), CASOB” value ([8]; 250 g ai/ha) was 100, the “Pre-emerge Herbicidal Activity, phytotoxicity rating (0-100), ABUTH” value ([9]; 63 g ai/ha) was 100 and the “Pre-emerge Herbicidal Activity, phytotoxicity rating (0-100), ABUTH” value ([9]; 250 g ai/ha) was 100. The “Pre-emerge phytotoxicity rating (0-100), crop damage, CORN” value ([10]; 63 g ai/ha) was 10, the “Pre-emerge phytotoxicity rating (0-100), crop damage, CORN” value ([10]; 250 g ai/ha) was 35 and the “Pre-emerge phytotoxicity rating (0-100), crop damage, RICE” value ([11]; 63 g ai/ha) was 30. For the same molecule, the “Pre-emerge phytotoxicity rating (0-100), crop damage, RICE” value ([11]; 250 g ai/ha) was 90, the “phytotoxicity rating ECHCG” value ([12]; 63 g ai/ha) was 0 and the “phytotoxicity rating ECHCG” value ([12]; 250 g ai/ha) was 0. For the same molecule, the “phytotoxicity rating SETVI” value ([13]; 63 g ai/ha) was 0, the “phytotoxicity rating SETVI” value ([13]; 250 g ai/ha) was 0 and the “phytotoxicity rating IPOHE” value ([14]; 63 g ai/ha) was 90. The “phytotoxicity rating IPOHE” value ([14]; 250 g ai/ha) was 100, the “phytotoxicity rating SORHA” value ([15]; 63 g ai/ha) was 0 and the “phytotoxicity rating SORHA” value ([15]; 250 g ai/ha) was 0. The “phytotoxicity rating DIGSA” value ([16]; 63 g ai/ha) was 0, the “phytotoxicity rating DIGSA” value ([16]; 250 g ai/ha) was 0 and the “phytotoxicity rating AMARE” value ([17]; 63 g ai/ha) was 10. For the same molecule, the “phytotoxicity rating AMARE” value ([17]; 250 g ai/ha) was 70, the “phytotoxicity rating CASOB” value ([18]; 63 g ai/ha) was 40 and the “phytotoxicity rating CASOB” value ([18]; 250 g ai/ha) was 95. The “phytotoxicity rating ABUTH” value ([19]; 63 g ai/ha) was 80, the “phytotoxicity rating ABUTH” value ([19]; 250 g ai/ha) was 100 and the “phytotoxicity rating CORN” value ([20]; 63 g ai/ha) was 5. For the same molecule, the “phytotoxicity rating CORN” value ([20]; 250 g ai/ha) was 20, the “phytotoxicity rating RICE” value ([21]; 63 g ai/ha) was 10 and the “phytotoxicity rating RICE” value ([21]; 250 g ai/ha) was 40.

Reference: patent publication US6355799B1, “Substituted benzene compounds, process for their preparation, and herbicidal and defoliant compositions containing them” (ISK Americas Incorporated, priority 1997, dated 2002)
